Source: patent US20260365662A1, “ISOANDROGRAPHOLIDE ANALOGS AND METHOD FOR TREATMENT USING THE SAME” (Enveda Therapeutics, Inc., priority 2023, published 2026)
“Also recorded” adds a separate entry of the source.

Legend:
Assay type in all cases: in vivo
female BALB/c mouse [1] = experiment: MC-903 induced atopic dermatitis model, therapeutic mode (Example 14); details: twice a day, vs MC-903 vehicle control
Experimental: Experimental details: Preclinical animal model of atopic dermatitis was developed by MC-903, a vitamin-D analogue. In the current study, the test item Compound 2 was screened in therapeutic mode, to evaluate its efficacy in MC-903 induced AD model. 2 nmol of MC-903 was topically applied to 8-10 weeks old female BALB/c mouse from G2-G8 group at a volume of 50 μl/mouse on back skin on every alternate day for 14 days to induced disease. For the G1 group, (Normal+ethanol control) the same volume of ethanol that was used to solubilize MC-903 was applied. Clobetasol (0.05%, 15 mg/mouse) was applied topically once a day to G3 group animals and Ruxolitinib (1.5%, 20 mg/mouse) was applied topically twice a day to G4 group animals. Compound 2 was administered twice a day to respective treatment groups (G4-G8) for 14 days. On the day of MC-903 administration, test compounds were dosed one hour prior to MC-903 insult. Clinical scores to assess the disease intensity were measured from visual examination for erythema, scaling and back skin thickness using dial caliper. All the scores were carried by blinded observers to treatment groups. Disease severity was assessed by dermatitis erythema & dermatitis scaling.

female BALB/c mouse [2] = experiment: Hapten-induced atopic dermatitis model (Example 13); details: for itch / number of scratches in scratch test: 10 minutes, day 13, four hours after last challenge; for immune cell infiltration: histopathology; for immune cell infiltration / epidermal thickness / histopathological changes / histopathology score: back skin; for epidermal thickness / histopathological changes / histopathology score / IL-4 expression: prophylactic; for IL-4 expression / dermatitis severity scores: vs hapten vehicle control; for dermatitis severity scores: twice a day, 14 days
Experimental: Experimental details: Preclinical animal model of atopic dermatitis was developed by [COMPOUND LEFT OUT] [COMPOUND LEFT OUT], a Hapten. In the current study, the test item Compound 2 was screened to evaluate its efficacy in [COMPOUND LEFT OUT] induced AD model. 0.15% of [COMPOUND LEFT OUT] was topically applied to 7-8 weeks old female BALB/c mouse from G2-G7 group at a volume of 100 μl/mouse on back skin once in 3 days to induced disease. For the G1 group, (Vehicle control) the same volume of acetone and olive oil (3:1) that was used to solubilize [COMPOUND LEFT OUT] was applied. Dexamethasone (5 mg/kg, p.o, qd) was dosed per oral once a day to G3 group animals. Compound 2 was administered twice a day to respective treatment groups (G4-G6) for 14 days. On the day of [COMPOUND LEFT OUT] administration, test compounds were dosed one hour prior to [COMPOUND LEFT OUT] insult. Clinical scores to assess the disease intensity were measured from visual examination for erythema, scaling, excoriation, and back skin thickness using dial caliper. All the scores were carried by blinded observers to treatment groups. Cumulative dermatitis severity scores were calculated by adding up the individual scores of erythema, scaling, thickness & excoriation. On day-13 of the study, four hours after the last [COMPOUND LEFT OUT] challenge, scratching behavior was recorded using a web camera in acrylic observational chambers. The number of scratches were measured for 10 minutes. Later, all the animals were terminally bled under mild anesthesia followed by humane sacrifice and back skin tissue was dissected. Required skin tissue samples were collected in fixative and part of the tissue was flash-frozen in liquid nitrogen and stored at −80 °C. Collected tissue samples were processed and used for biomarker analysis using gene and protein expression analysis by qPCR & ELISA, pharmacokinetic analysis by LC-MS and histopathology studies.

female BALB/c mouse [3] = experiment: MC-903 induced atopic dermatitis model, therapeutic mode, vs oral JAK-i (Example 15); details: twice a day; for dermatitis severity scores: vs MC-903 vehicle control
Experimental: Experimental details: Preclinical animal model of atopic dermatitis was developed by MC-903, a vitamin-D analogue. In the current study, the test item Compound 2 was screened in therapeutic mode, to evaluate its efficacy in MC-903 induced AD model. 2 nmol of MC-903 was topically applied to 8-10 weeks old female BALB/c mouse from G2-G8 group at a volume of 50 μl/mouse on back skin on every alternate day for 14 days to induced disease. For the G1 group, (Normal+ethanol control) the same volume of ethanol that was used to solubilize MC-903 was applied. Clobetasol (0.05%, 15 mg/mouse) was applied topically once a day to G3 group animals, Upadacitinib was dosed oral twice a day at 2, 6 & 20 mg/kg to G4, G5 & G6 respectively. Compound 2 was administered twice a day to respective treatment groups (G7-G10) for 14 days. On the day of MC-903 administration, test compounds were dosed one hour prior to MC-903 insult. Clinical scores to assess the disease intensity were measured from visual examination for erythema, scaling and back skin thickness using dial caliper. All the scores were carried by blinded observers to treatment groups. Disease severity was assessed by dermatitis severity scores.

female BALB/c mouse [4] = experiment: MC-903 induced atopic dermatitis model, therapeutic mode, low doses (Example 16); details: p.o. twice a day; for dermatitis severity scores: 0.01 to 10 mg/kg, vs MC-903 vehicle control
Experimental: Experimental details: Preclinical animal model of atopic dermatitis was developed by MC-903, a vitamin-D analogue. In the current study, the test item Compound 2 was screened in therapeutic mode, to evaluate its efficacy in MC-903 induced AD model. 2 nmol of MC-903 was topically applied to 8-10 weeks old female BALB/c mouse from G2-G8 group at a volume of 50 μl/mouse on back skin on every alternate day for 14 days to induced disease. For the G1 group, (Normal+ethanol control) the same volume of ethanol that was used to solubilize MC-903 was applied. Clobetasol (0.05%, 15 mg/mouse) was applied topically once a day to G3 group animals. Compound 2 was administered per oral twice a day at 0.01, 0.1, 1, 3 & 10 mg/kg to respective treatment groups (G4-G8) for 14 days. On the day of MC-903 administration, test compounds were dosed one hour prior to MC-903 insult. Clinical scores to assess the disease intensity were measured from visual examination for erythema, scaling and back skin thickness using dial caliper. All the scores were carried by blinded observers to treatment groups. Disease severity was assessed by dermatitis severity scores.

## C[C@@]12CCC(=O)N[C@@](C)(CO)[C@H]1CC[C@@]1(C)O[C@H](C3=CCOC3=O)C[C@@H]21 [Compound 2, (2S,3aR,5aS,6R,10aR,10bS)-6-(hydroxymethyl)-3a,6,10a-trimethyl-2-(2-oxo-2,5-dihydrofuran-3-yl) dodecahydro-8H-benzofuro[5,4-c]azepin-8-one]
Female BALB/c mouse [1]
  dermatitis erythema scores: dose dependent decrease
  dermatitis scaling scores: dose dependent decrease
Female BALB/c mouse [1]; listed as compound 2
  dermatitis erythema scores: significantly reduces
  dermatitis scaling scores: significantly reduces
Female BALB/c mouse [2]
  itch / number of scratches in scratch test: reduced
  immune cell infiltration: significantly reduced
  epidermal thickness: significantly reduced
  histopathological changes / histopathology score: significantly reduced
  IL-4 expression: reduced
  dermatitis severity scores: Significantly Reduces; also recorded: dose dependent decrease
Female BALB/c mouse [2]; listed as compound 2
  itch / number of scratches in scratch test: reduces itch comparably to current first line therapy
  immune cell infiltration: reduces immune cell infiltration
  epidermal thickness: significantly reduces
  histopathological changes / histopathology score: ameliorates; also recorded: significantly reduces
  IL-4 expression: impacts IL-4 expression
  dermatitis severity scores: dose dependent decrease
Female BALB/c mouse [3]
  efficacy compared with oral JAK-i: Efficacy On-Par with Oral JAK-i
  dermatitis severity scores: significant dose dependent decrease in dermatitis severity scores on-par with oral JAK-i
Female BALB/c mouse [3]; listed as compound 2
  dermatitis severity scores: significantly reduces dermatitis severity scores on-par with oral JAK-i
Female BALB/c mouse [4]; Mus musculus, po, 336 h, doses 0.01, 0.1, 1, 3, 10 mg/kg, read-out: lowest active dose (dermatitis severity scores)
  minimal effective dose: 0.1 mg/kg
Female BALB/c mouse [4]
  dermatitis severity scores: significant dose dependent decrease
Female BALB/c mouse [4]; listed as compound 2
  dermatitis severity scores: significantly reduces
